The target in experiment [1] is T1, Phospho-EGFR (Tyr1068) in H1975 C797S cells (CRISPR-edited EGFR C797S) (Homo sapiens, UniProt P00533, C797S/L858R/T790M).
T1 construct: host or cells: H1975 C797S (CRISPR-edited)
The experiment is described as follows: HTRF pEGFR/total EGFR in H1975 C797S cells. The conditions noted are these: ratio pEGFR/total EGFR, compound 3 hours. The class given is cell-based. Summed up:
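Readout is the HTRF-measured Tyr1068 phospho-EGFR to total EGFR ratio, normalised to the 0 μM control as percent. Preceding this, CRISPR-edited H1975 C797S cells, plated 24 h earlier, were exposed 3 h to duplicate compound doses in medium with 0.1% DMSO, then lysed on a shaker.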
For orientation: In TR-FRET formats the signal depends on donor and acceptor labels being close together.

For experiment [2], the target named is T2, Phospho-EGFR (Tyr1068) in A431 cells (Homo sapiens, UniProt P00533).
T2 construct: endogenous in cells; host or cells: A431
T2 sequence (P00533 25-1210): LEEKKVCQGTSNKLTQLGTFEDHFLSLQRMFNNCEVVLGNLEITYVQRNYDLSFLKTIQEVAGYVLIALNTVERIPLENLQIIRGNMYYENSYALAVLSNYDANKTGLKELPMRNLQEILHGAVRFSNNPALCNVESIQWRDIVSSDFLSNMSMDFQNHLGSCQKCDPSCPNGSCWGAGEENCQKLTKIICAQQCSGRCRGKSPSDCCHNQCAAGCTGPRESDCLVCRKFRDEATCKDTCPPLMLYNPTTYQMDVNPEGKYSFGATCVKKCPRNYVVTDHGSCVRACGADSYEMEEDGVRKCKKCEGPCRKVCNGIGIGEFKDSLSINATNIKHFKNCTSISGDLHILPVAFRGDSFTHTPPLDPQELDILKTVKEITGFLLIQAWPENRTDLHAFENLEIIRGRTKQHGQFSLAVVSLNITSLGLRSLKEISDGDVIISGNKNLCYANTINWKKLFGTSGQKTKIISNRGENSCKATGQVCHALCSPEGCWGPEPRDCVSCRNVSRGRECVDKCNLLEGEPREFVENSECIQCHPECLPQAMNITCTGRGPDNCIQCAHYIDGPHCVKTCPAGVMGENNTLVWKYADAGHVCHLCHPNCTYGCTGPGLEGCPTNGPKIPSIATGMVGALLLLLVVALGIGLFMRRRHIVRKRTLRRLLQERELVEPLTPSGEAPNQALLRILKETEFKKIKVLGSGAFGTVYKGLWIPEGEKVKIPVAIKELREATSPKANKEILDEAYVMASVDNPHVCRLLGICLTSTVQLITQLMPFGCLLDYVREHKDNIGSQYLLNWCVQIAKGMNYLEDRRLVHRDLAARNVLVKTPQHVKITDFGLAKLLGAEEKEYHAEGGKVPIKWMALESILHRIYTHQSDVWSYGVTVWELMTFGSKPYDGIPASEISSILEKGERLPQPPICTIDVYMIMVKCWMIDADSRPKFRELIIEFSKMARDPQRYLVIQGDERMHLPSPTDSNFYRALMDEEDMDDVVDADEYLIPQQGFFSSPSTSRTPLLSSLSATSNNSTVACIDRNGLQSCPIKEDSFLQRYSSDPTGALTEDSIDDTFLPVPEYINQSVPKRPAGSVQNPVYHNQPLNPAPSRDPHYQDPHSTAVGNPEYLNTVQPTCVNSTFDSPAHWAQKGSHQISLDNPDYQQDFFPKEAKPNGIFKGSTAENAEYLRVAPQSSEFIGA
Briefly: HTRF pEGFR/total EGFR in A431 cells with EGF stimulation. The conditions noted are these: ratio pEGFR/total EGFR, compound 2.5 hours then 100 ng/ml EGF 30 mins. The class given is cell-based. In a few lines: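 Values are pEGFR(Tyr1068)/total EGFR HTRF ratios (665/620 nm) given as percent of the 0 μM control. Adhered A431 cells (20,000 per well, 24 h) had 2.5 h compound pretreatment in 0.1% DMSO, then 30 min of 100 ng/ml EGF before lysis.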

Experiment [3] addresses T3, Phospho-EGFR (Tyr1068) in H1975 cells (Homo sapiens, UniProt P00533, L858R/T790M).
T3 construct: host or cells: H1975
Briefly: HTRF pEGFR/total EGFR in H1975 cells. The class given is cell-based. The conditions noted are these: ratio pEGFR/total EGFR, compound 3 hours. In a few lines:
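Readout is the phospho-EGFR (Tyr1068) to total EGFR HTRF ratio, expressed relative to 0 μM control. Adhered H1975 cells were exposed to compound for 3 hours at 0.1% DMSO, duplicate wells, then lysed for 30 min at room temperature before two-wavelength fluorescence reading.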

In experiment [4] the target is CtermHisTag-mEGFR Wild type (Homo sapiens, UniProt P00533). The experiment is described as follows: biochemical.
CtermHisTag-mEGFR Wild type, sequence (P00533 whole entry): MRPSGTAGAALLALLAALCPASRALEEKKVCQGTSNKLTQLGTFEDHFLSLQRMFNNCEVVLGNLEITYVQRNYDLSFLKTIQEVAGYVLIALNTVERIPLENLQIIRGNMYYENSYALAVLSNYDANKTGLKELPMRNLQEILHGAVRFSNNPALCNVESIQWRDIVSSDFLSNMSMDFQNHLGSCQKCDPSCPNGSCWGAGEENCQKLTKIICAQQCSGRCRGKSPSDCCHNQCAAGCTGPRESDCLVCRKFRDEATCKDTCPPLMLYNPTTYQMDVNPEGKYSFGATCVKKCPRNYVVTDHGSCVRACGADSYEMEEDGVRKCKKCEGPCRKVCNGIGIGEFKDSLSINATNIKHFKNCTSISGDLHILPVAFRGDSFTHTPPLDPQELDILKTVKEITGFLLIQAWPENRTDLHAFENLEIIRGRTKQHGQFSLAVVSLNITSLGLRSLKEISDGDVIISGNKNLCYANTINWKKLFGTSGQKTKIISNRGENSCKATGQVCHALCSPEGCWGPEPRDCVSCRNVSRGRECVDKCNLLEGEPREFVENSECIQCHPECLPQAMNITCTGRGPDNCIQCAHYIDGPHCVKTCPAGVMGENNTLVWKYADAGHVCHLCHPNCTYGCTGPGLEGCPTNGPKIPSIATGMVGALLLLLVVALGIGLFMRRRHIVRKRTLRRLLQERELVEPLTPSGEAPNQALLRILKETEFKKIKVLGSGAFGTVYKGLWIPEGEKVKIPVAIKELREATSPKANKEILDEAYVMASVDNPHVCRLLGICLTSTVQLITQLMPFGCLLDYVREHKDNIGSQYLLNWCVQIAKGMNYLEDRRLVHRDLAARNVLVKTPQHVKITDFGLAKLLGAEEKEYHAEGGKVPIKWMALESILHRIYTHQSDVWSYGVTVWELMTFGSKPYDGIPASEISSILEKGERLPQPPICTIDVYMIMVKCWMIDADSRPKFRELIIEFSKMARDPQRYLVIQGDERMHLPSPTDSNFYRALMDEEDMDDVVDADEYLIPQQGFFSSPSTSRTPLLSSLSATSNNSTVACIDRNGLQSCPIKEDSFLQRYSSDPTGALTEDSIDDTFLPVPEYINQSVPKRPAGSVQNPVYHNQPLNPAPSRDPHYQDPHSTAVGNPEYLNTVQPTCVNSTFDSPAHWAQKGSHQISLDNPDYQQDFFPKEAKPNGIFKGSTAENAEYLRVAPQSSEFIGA

Where only a bound is given, the exact number is not on record here.

T3 sequence (P00533 25-1210 T790M/L858R): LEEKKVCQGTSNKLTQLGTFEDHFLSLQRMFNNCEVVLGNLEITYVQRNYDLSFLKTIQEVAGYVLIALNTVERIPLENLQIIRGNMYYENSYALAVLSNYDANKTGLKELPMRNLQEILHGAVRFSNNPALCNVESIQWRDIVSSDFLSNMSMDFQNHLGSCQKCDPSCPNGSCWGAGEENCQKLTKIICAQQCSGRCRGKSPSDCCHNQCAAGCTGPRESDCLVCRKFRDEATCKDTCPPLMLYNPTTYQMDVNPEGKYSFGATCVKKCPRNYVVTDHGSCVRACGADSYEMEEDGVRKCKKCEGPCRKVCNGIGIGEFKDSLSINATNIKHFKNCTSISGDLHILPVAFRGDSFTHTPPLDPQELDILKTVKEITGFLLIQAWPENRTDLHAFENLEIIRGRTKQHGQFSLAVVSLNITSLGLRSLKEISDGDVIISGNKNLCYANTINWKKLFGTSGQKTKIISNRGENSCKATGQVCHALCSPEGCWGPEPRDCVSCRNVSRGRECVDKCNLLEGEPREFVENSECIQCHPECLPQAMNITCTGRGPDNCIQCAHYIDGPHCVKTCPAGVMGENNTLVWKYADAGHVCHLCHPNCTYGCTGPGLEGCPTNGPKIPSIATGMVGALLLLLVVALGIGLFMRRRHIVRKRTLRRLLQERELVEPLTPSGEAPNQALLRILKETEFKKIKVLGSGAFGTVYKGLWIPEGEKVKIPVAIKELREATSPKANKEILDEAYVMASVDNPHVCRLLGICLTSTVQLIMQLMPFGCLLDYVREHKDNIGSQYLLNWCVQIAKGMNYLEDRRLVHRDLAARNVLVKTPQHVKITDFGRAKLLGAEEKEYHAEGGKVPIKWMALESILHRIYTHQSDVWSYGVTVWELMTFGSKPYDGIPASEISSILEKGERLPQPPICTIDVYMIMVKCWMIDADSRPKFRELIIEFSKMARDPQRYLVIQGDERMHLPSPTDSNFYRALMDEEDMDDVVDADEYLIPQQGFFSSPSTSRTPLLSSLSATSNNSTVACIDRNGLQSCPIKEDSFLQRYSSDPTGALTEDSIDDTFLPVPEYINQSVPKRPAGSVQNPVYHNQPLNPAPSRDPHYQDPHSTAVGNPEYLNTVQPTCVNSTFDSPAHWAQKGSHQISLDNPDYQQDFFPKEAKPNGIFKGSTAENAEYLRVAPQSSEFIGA
T1 sequence (P00533 25-1210 T790M/C797S/L858R): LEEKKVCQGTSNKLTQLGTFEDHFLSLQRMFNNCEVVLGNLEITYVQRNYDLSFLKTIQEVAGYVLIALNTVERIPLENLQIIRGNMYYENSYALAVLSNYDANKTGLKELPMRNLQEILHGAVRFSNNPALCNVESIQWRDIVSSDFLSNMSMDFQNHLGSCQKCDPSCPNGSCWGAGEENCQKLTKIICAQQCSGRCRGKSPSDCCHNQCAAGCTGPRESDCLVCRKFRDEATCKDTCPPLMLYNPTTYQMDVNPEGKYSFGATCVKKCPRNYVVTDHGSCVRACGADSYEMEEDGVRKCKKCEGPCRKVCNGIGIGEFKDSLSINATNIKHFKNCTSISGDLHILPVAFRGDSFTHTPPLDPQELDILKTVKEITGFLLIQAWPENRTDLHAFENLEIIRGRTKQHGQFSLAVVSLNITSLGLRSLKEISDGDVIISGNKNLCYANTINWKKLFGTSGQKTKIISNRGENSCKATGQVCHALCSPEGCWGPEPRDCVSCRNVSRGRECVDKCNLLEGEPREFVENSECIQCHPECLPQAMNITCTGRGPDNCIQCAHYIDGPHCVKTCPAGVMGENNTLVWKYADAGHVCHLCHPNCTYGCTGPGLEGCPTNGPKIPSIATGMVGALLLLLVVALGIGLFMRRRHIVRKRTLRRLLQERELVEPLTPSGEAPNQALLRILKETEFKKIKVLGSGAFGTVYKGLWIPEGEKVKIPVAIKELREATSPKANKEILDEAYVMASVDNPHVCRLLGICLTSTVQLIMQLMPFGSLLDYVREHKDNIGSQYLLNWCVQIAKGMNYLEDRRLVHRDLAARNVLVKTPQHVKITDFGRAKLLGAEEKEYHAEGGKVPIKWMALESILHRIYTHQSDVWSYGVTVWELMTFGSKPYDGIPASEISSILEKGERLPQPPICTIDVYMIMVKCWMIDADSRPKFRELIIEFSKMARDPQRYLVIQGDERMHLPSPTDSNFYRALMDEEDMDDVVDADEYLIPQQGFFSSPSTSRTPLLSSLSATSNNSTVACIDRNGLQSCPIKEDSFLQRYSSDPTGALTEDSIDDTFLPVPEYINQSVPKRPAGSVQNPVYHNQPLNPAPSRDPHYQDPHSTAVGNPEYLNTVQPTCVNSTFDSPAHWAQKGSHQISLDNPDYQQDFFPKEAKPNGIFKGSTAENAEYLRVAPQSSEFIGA

With `C#Cc1c(-c2ccccc2Cl)c(=O)n(C)c2nc(Nc3cccc(OC)c3)ncc12` [Example 131, 6-(2-chlorophenyl)-5-ethynyl-2-[(3-methoxyphenyl)amino]-8-methylpyrido[2,3-]pyrimidin-7-one], the IC50 – broadly, the concentration that gives 50% inhibition – in experiment [1] was above 3 µM; in experiment [2], above 3 µM; in experiment [3], 1 to 3 µM; in experiment [4], 1 to 10 µM.

On to `C#Cc1cc(=O)n(C2CCCC2O)c2nc(Nc3ccc(N4CCN(C)CC4)cc3)ncc12` (stereo not drawn) [Example 73, 5-Ethynyl-8-(2-hydroxycyclopentyl)-2-((4-(4-methylpiperazin-1-yl)phenyl)amino)pyrido[2,3-d]pyrimidin-7(8H)-one], for which the IC50 in experiment [1] is 1 to 3 µM; in experiment [2], above 3 µM; in experiment [3] it was 0.5 to 1 µM; in experiment [4], 1 to 10 µM.

Consider `C#Cc1cc(=O)n(-c2ccccc2)c2nc(Nc3ccc(N(C)CCCN(C)C)cc3)ncc12` [Example 9, 2-((4-((3-(Dimethylamino)propyl)(methyl)amino)phenyl)amino)-5-ethynyl-8-phenylpyrido[2,3-d]pyrimidin-7(8H)-one], for which the IC50 in experiment [1] is below 0.5 µM; in experiment [2], above 3 µM; in experiment [3] it was below 0.5 µM; in experiment [4], below 1 µM.

For `C#Cc1cc(=O)n(C)c2nc(Nc3ccc(N4CCN(C)CC4)cc3)ncc12` [Example 45, 5-Ethynyl-8-methyl-2-{[4-(4-methylpiperazin-1-yl)phenyl]amino}pyrido[2,3-d]pyrimidin-7-one], the IC50 is below 0.5 µM in experiment [1], above 3 µM in experiment [2], below 0.5 µM in experiment [3] and below 1 µM in experiment [4].

With `C#Cc1cc(=O)n(C)c2nc(Nc3ccc(N4CCN(C)CC4)c(OCCc4ccnn4C)c3)ncc12` [Example 220, 5-Ethynyl-8-methyl-2-((3-(2-(1-methyl-1H-pyrazol-5-yl)ethoxy)-4-(4-methylpiperazin-1-yl)phenyl)amino)pyrido[2,3-d]pyrimidin-7(8H)-one], the IC50 in experiment [1] was below 0.5 µM; in experiment [2] it was 1 to 3 µM; in experiment [3], below 0.5 µM; in experiment [4], below 1 µM.

With `C#Cc1cc(=O)n(-c2ccccc2)c2cc(Nc3ccccc3OC)ncc12` [Example 3, 4-Ethynyl-7-[(2-methoxyphenyl)amino]-1-phenyl-1,6-naphthyridin-2-one], the IC50 in experiment [1] is above 3 µM; in experiment [2], above 3 µM; in experiment [3], above 3 µM; in experiment [4], above 10 µM.

On to `C#Cc1cc(=O)n(-c2ccccc2)c2nc(Nc3ccc(N(C)C(=O)CN(C)C)cc3OC)ncc12` [Example 7, 2-(Dimethylamino)-N-(4-((5-ethynyl-7-oxo-8-phenyl-7,8-dihydropyrido[2,3-d]pyrimidin-2-yl)amino)-3-methoxyphenyl)-N-methylacetamide], for which the IC50 was 1 to 3 µM in experiment [1], above 3 µM in experiment [2], 1 to 3 µM in experiment [3] and 1 to 10 µM in experiment [4].

As to `C#Cc1c(C)c(=O)n2c3nc(ncc13)Nc1cccc(c1)OCCCC2` [Example 191, 1^5-ethynyl-1^6-methyl-1^7,1^8-dihydro-4-oxa-2-aza-1(2,8)-pyrido[2,3-d]pyrimidina-3(1,3)-benzenacyclooctaphan-1^7-one], the IC50 is above 3 µM in experiment [1], above 3 µM in experiment [2], above 3 µM in experiment [3] and 1 to 10 µM in experiment [4].

On to `C#Cc1cc(=O)n(C)c2nc(Nc3cccc(N(C)C(=O)CN(C)C)c3)ncc12` [Example 53, 2-(Dimethylamino)-N-[3-({5-ethynyl-8-methyl-7-oxopyrido[2,3-d]pyrimidin-2-yl}amino)phenyl]-N-methylacetamide], for which the IC50 was above 3 µM in experiment [1], above 3 µM in experiment [2], above 3 µM in experiment [3] and 1 to 10 µM in experiment [4].

With `C#Cc1cc(=O)n2c3nc(ncc13)Nc1cccc(c1)OC[C@H]1CC[C@H](C1)C2` [Example 192, (5^1R,5^3S)-3^5-ethynyl-3^7,3^8-dihydro-7-oxa-2-aza-3(2,8)-pyrido[2,3-d]pyrimidina-1(1,3)-benzena-5(1,3)-cyclopentanacycloheptaphan-3^7-one], the IC50 is 0.5 to 1 µM in experiment [1], above 3 µM in experiment [2], 0.5 to 1 µM in experiment [3] and above 10 µM in experiment [4].

On to `C#Cc1c(C)c(=O)n(Cc2ccn(C)n2)c2nc(Nc3ccc(N4CCN(C)CC4)cc3)ncc12` [Example 110, 5-ethynyl-6-methyl-2-{[4-(4-methylpiperazin-1-yl)phenyl]amino}-8-[(1-methylpyrazol-3-yl)methyl]pyrido[2,3-d]pyrimidin-7-one], for which the IC50 in experiment [1] was 1 to 3 µM; in experiment [2], 1 to 3 µM; in experiment [3] it was 0.5 to 1 µM; in experiment [4], below 1 µM.

Consider `C#Cc1cc(=O)n2c3nc(ncc13)Nc1ccc(N3CCN(C)CC3)c(c1)CN(C)C(=O)CC2` [Example 223, 1^5-Ethynyl-5-methyl-3^4-(4-methylpiperazin-1-yl)-1^7,1^8-dihydro-2,5-diaza-1(2,8)-pyrido[2,3-d]pyrimidina-3(1,3)-benzenacyclooctaphane-1^7,6-dione], for which the IC50 in experiment [1] was below 0.5 µM; in experiment [2], 1 to 3 µM; in experiment [3], below 0.5 µM; in experiment [4], below 1 µM.

Take `C#Cc1c(-c2cccs2)c(=O)n(C)c2nc(Nc3ccc(N4CCN(C)CC4)cc3)ncc12` [Example 150, 5-ethynyl-8-methyl-2-{[4-(4-methylpiperazin-1-yl)phenyl]amino}-6-(thiophen-2-yl)pyrido[2,3-d]pyrimidin-7-one]: the IC50 was 1 to 3 µM in experiment [1], above 3 µM in experiment [2], above 3 µM in experiment [3] and 1 to 10 µM in experiment [4].

In the case of `C#Cc1cc(=O)n(C2CCCC2)c2nc(Nc3cccc(N(C)[C@H]4CC[C@H](CS(C)(=O)=O)CC4)c3)ncc12` [Example 206], the IC50 in experiment [1] is above 3 µM; in experiment [2], above 3 µM; in experiment [3], above 3 µM; in experiment [4], below 1 µM.

For `C#Cc1cc(=O)n(-c2ccccc2)c2nc(Nc3ccc(N4CCC(N5CC(COC)C5)CC4)cc3)ncc12` [Example 39, 5-Ethynyl-2-[(4-{4-[3-(methoxymethyl)azetidin-1-yl]piperidin-1-yl}phenyl)amino]-8-phenylpyrido[2,3-d]pyrimidin-7-one], the IC50 in experiment [1] is below 0.5 µM; in experiment [2] it was 1 to 3 µM; in experiment [3], below 0.5 µM; in experiment [4] it was below 1 µM.

In the case of `C#Cc1cc(=O)n(-c2ccccc2)c2nc(Nc3ccc(N4CCN(CCO)CC4)cc3)ncc12` [Example 17, 5-ethynyl-2-({4-[4-(2-hydroxyethyl)piperazin-1-yl]phenyl}amino)-8-phenylpyrido[2,3-d]pyrimidin-7-one], the IC50 was below 0.5 µM in experiment [1], 1 to 3 µM in experiment [2], below 0.5 µM in experiment [3] and below 1 µM in experiment [4].

`C#Cc1cc(=O)n(C)c2nc(Nc3ccc(N4CCN(C)CC4)c(OCCC(C)C)c3)ncc12` [Example 216, 5-Ethynyl-2-((3-(isopentyloxy)-4-(4-methylpiperazin-1-yl)phenyl)amino)-8-methylpyrido[2,3-d]pyrimidin-7(8H)-one]: the IC50 in experiment [1] is below 0.5 µM; in experiment [2] it was 1 to 3 µM; in experiment [3], below 0.5 µM; in experiment [4], below 1 µM.

Regarding `C#Cc1cc(=O)n2c3nc(ncc13)Nc1ccc(N3CCN(C(C)C)CC3)c(c1)NC(=O)CCC2` [Example 235, 1^5-Ethynyl-3^4-(4-isopropylpiperazin-1-yl)-1^7,1^8-dihydro-2,4-diaza-1(2,8)-pyrido[2,3-d]pyrimidina-3(1,3)-benzenacyclooctaphane-1^7,5-dione], the IC50 in experiment [1] is below 0.5 µM; in experiment [2] it was 0.5 to 1 µM; in experiment [3] it was below 0.5 µM; in experiment [4], below 1 µM.

For the compound `C#Cc1cc(=O)n(-c2ccc(OC)cc2OC)c2nc(Nc3ccc(N(C)CCN(C)C)cc3)ncc12` [Example 86, 8-(2,4-Dimethoxyphenyl)-2-[(4-{[2-(dimethylamino)ethyl](methyl)amino}phenyl)amino]-5-ethynylpyrido[2,3-d]pyrimidin-7-one], the IC50 in experiment [1] was 0.5 to 1 µM; in experiment [2], 1 to 3 µM; in experiment [3], below 0.5 µM; in experiment [4] it was below 1 µM.

With `C#Cc1cc(=O)n(-c2ccccc2)c2nc(Nc3ccc(N4CCN(C(C)C)CC4)cc3)ncc12` [Example 16, 5-Ethynyl-2-{[4-(4-isopropylpiperazin-1-yl)phenyl]amino}-8-phenylpyrido[2,3-d]pyrimidin-7-one], the IC50 in experiment [1] is below 0.5 µM; in experiment [2], 1 to 3 µM; in experiment [3], below 0.5 µM; in experiment [4] it was below 1 µM.

Regarding `C#Cc1cc(=O)n(-c2ccccc2)c2nc(Nc3ccc(N4CCCNCC4)cc3)ncc12` [Example 20, 2-{[4-(1,4-Diazepan-1-yl)phenyl]amino}-5-ethynyl-8-phenylpyrido[2,3-d]pyrimidin-7-one], the IC50 in experiment [1] is below 0.5 µM; in experiment [2] it was 1 to 3 µM; in experiment [3], below 0.5 µM; in experiment [4] it was below 1 µM.

The values are drawn from patent US20260137703A1, “2-AMINO-PYRIDO[2,3-D]PYRIMIDIN-7(8H)-ONE AND 7-AMINO-1-PYRIMIDO[4,5-D]PYRIMIDIN-2(1 H)-ONE DERIVATIVES AS EGFR INHIBITORS FOR THE TREATMENT OF CANCER” (Cancer Research Technology Limited, priority 2022, published 2026).
